ChEMBL document CHEMBL3769333, “A mode of action study of cationic anthraquinone analogs: a new class of highly potent anticancer agents” (Medchemcomm, 2015)
Each block holds one compound with its values, some of them ahead of it. Activity calls are given as the source filed them. No cut-off for these calls is given here.

Key:
[1] = Induction of ROS level in anhydrous acetonitrile electrolyte assessed as first half wave redox potential at 2 mM using Ag/AgCl reference electrode by cyclic voltammetry; format: physicochemical; conditions: 2000 µM
[2] = Induction of ROS level in anhydrous acetonitrile electrolyte assessed as second half wave redox potential at 2 mM using Ag/AgCl reference electrode by cyclic voltammetry; format: physicochemical; conditions: 2000 µM
[3] = Cytotoxicity against human NCI60 cells assessed as cell growth relative to control; format: functional; set-up: concentration or dose not given beside the values
Escherichia coli [4] = test: Induction of Escherichia coli supercoiled pUC19 DNA cleavage at 240 uM after 24 hrs by agarose gel electrophoresis
A549 [5] = test: Growth inhibition of human A549 cells assessed as reduction in cell viability after 48 hrs by MTT assay; format: functional, cell-based; conditions: A549, 48 h
[6] = Growth inhibition of human […] cells assessed as reduction in cell viability after 48 hrs by MTT assay; format: cell-based
A549 [7] = test: Selectivity index, ratio of IC50 for human […] cells to IC50 for human A549 cells; format: functional
A549 [8] = test: Induction of apoptosis in human A549 cells assessed as increase in ROS level at 10 uM after 4 hrs by DCFH-DA staining based flow cytometry relative to control; format: functional
A549 [9] = test: Cell cycle arrest in human A549 cells assessed as accumulation at sub G1 phase at 0.01 to 100 uM after 24 hrs by propidium idoide staining based flow cytometry; format: functional
A549 [10] = test: Cell cycle arrest in human A549 cells assessed as accumulation at G1 phase at 0.01 to 100 uM after 24 hrs by propidium idoide staining based flow cytometry; format: functional
A549 [11] = test: Cell cycle arrest in human A549 cells assessed as accumulation at S phase at 0.01 to 100 uM after 24 hrs by propidium idoide staining based flow cytometry; format: functional
A549 [12] = test: Cell cycle arrest in human A549 cells assessed as accumulation at G2 phase at 0.01 to 100 uM after 24 hrs by propidium idoide staining based flow cytometry; format: functional
A549 [13] = test: Induction of apoptosis in human A549 cells assessed as apoptotic cells at 0.01 uM after 24 hrs by Annexin V/propidium iodide staining based flow cytometry (reference value: 7.7%); format: functional
A549 [14] = test: Induction of apoptosis in human A549 cells assessed as apoptotic cells at 0.1 uM after 24 hrs by Annexin V/propidium iodide staining based flow cytometry (reference value: 7.7%); format: functional
A549 [15] = test: Induction of apoptosis in human A549 cells assessed as apoptotic cells at 1 uM after 24 hrs by Annexin V/propidium iodide staining based flow cytometry (reference value: 7.7%); format: functional
A549 [16] = test: Induction of apoptosis in human A549 cells assessed as apoptotic cells at 10 uM after 24 hrs by Annexin V/propidium iodide staining based flow cytometry (reference value: 7.7%); format: functional
A549 [17] = test: Induction of apoptosis in human A549 cells assessed as apoptotic cells at 100 uM after 24 hrs by Annexin V/propidium iodide staining based flow cytometry (reference value: 7.7%); format: functional
A549 [18] = test: Induction of apoptosis in human A549 cells assessed as cell shrinkage at 1 to 100 uM after 24 hrs by microscopy; format: functional, cell-based
A549 [19] = test: Induction of apoptosis in human A549 cells assessed as nuclear condensation at 100 uM after 24 hrs by microscopy; format: functional, cell-based
A549 [20] = test: Induction of apoptosis in human A549 cells assessed as mitochondrial membrane damage at 100 uM after 24 hrs by microscopy; format: functional, cell-based
A549 [21] = test: Induction of apoptosis in human A549 cells assessed as increase in ROS level at 100 uM after 4 hrs by DCFH-DA staining based flow cytometry relative to control; format: functional
A549 [22] = test: Induction of apoptosis in human A549 cells assessed as increase in ROS level at 10 to 100 nM after 4 hrs by DCFH-DA staining based flow cytometry; format: functional, cell-based
A549 [23] = test: Reduction of glutathione level in human A549 cells at 0.1 uM after 48 hrs by fluorometric assay; format: functional; set-up: scale not given: the % may be the effect or the level left
A549 [24] = test: Reduction of glutathione level in human A549 cells at 1 uM after 48 hrs by fluorometric assay; format: functional; set-up: scale not given: the % may be the effect or the level left
A549 [25] = test: Reduction of glutathione level in human A549 cells at 10 uM after 48 hrs by fluorometric assay; format: functional; set-up: scale not given: the % may be the effect or the level left
A549 [26] = test: Reduction of glutathione level in human A549 cells at 100 uM after 48 hrs by fluorometric assay; format: functional; set-up: scale not given: the % may be the effect or the level left
A549 [27] = test: Reduction of glutathione in human A549 cells assessed as glutathione level after 48 hrs by fluorometric assay; format: functional, cell-based
A549 [28] = test: Induction of alteration in mitochondrial membrane potential in human A549 cells after 24 hrs by rhodamine 123 staining based flow cytometry; format: functional, cell-based
A549 [29] = test: Induction of mitochondrial membrane potential loss in human A549 cells at 10 to 100 nM after 24 hrs by rhodamine 123 staining based flow cytometry (reference value: 1.7%); format: functional
A549 [30] = test: Induction of mitochondrial membrane potential loss in human A549 cells at 1 uM after 24 hrs by rhodamine 123 staining based flow cytometry (reference value: 1.7%); format: functional
A549 [31] = test: Induction of mitochondrial membrane potential loss in human A549 cells at 10 uM after 24 hrs by rhodamine 123 staining based flow cytometry (reference value: 1.7%); format: functional
A549 [32] = test: Induction of mitochondrial membrane potential loss in human A549 cells at 100 uM after 24 hrs by rhodamine 123 staining based flow cytometry (reference value: 1.7%); format: functional
Escherichia coli [33] = test: Induction of Escherichia coli supercoiled pUC19 DNA cleavage assessed as appearance of nicked supercoiled DNA after 24 hrs by agarose gel electrophoresis in absence of transition metal complex, light irradiation or oxidative reagent
[34] = Induction of ROS level assessed as half reduction potential using saturated calomel electrode by cyclic voltammetry; format: physicochemical
[35] = Induction of ROS level assessed as half reduction potential using Ag/AgCl reference electrode by cyclic voltammetry; format: physicochemical

SMILES: C[n+]1nn(-c2ccc(Cl)cc2)c2c1C(=O)c1ccccc1C2=O.O=S(=O)([O-])C(F)(F)F
- Activity [1]: -148.5 mV
- Activity [2]: -842.5 mV
- Activity [3]: 101.7%
- Activity (Escherichia coli [4]): Active

SMILES: CCCCCCCCn1n[n+](C)c2c1C(=O)c1ccccc1C2=O.O=S(=O)([O-])C(F)(F)F
- IC50 (A549 [5]): 83.3 µM
- Activity (A549 [8]): 108%
- Activity (A549 [21]): 177%
- Activity (A549 [31]): 25%
- Activity (A549 [32]): 50%

SMILES: C[n+]1nn(-c2ccccc2)c2c1C(=O)c1ccccc1C2=O.O=S(=O)([O-])C(F)(F)F
- Activity [1]: -163.5 mV
- Activity [2]: -866.5 mV
- Activity [3]: -10.18%
- Activity (Escherichia coli [33]): Dose-dependent effect

SMILES: COc1cc([C@@H]2c3cc4c(cc3[C@@H](O[C@@H]3O[C@@H]5CO[C@@H](C)O[C@H]5[C@H](O)[C@H]3O)[C@H]3COC(=O)[C@H]23)OCO4)cc(OC)c1O [ETOPOSIDE]
- IC50 (A549 [5]): 3.9 µM

SMILES: COC1=C(OC)C(=O)C(C/C=C(\C)CC/C=C(\C)CC/C=C(\C)CC/C=C(\C)CC/C=C(\C)CC/C=C(\C)CC/C=C(\C)CC/C=C(\C)CC/C=C(\C)CCC=C(C)C)=C(C)C1=O [UBIDECARENONE]
- Activity [34]: -602 mV
- Activity [35]: -567 mV

SMILES: C[n+]1nn(-c2ccc(C(F)(F)F)cc2)c2c1C(=O)c1ccccc1C2=O.O=S(=O)([O-])C(F)(F)F
- Activity [1]: -130.5 mV
- Activity [2]: -823.5 mV
- Activity [3]: 58.69%
- Activity (Escherichia coli [4]): Active

The next lines start with results.

- IC50 (A549 [5]): 4.2 µM
- Activity [1]: -182.5 mV
- Activity [2]: -885 mV
- Activity (Escherichia coli [4]): Active
SMILES: COc1ccc(-n2n[n+](C)c3c2C(=O)c2ccccc2C3=O)cc1.O=S(=O)([O-])C(F)(F)F
- IC50 [6]: 35 µM
- Ratio IC50 (A549 [7]): 8
- Activity (A549 [8]): 133%
- Activity (A549 [9]): inactive
- Activity (A549 [10]): inactive
- Activity (A549 [11]): inactive
- Activity (A549 [12]): inactive
- Activity (A549 [13]): 8.74%
- Activity (A549 [14]): 11.06%
- Activity (A549 [15]): 11.07%
- Activity (A549 [16]): 35.44%
- Activity (A549 [17]): 61.28%
- Activity (A549 [18]): Active
- Activity (A549 [19]): Active
- Activity (A549 [20]): Active
- Activity (A549 [21]): 226%
- Activity (A549 [22]): inactive
- Activity (A549 [23]): 99.35%
- Activity (A549 [24]): 88.76%
- Activity (A549 [25]): 23.87%
- Activity (A549 [26]): 12.13%
- Activity (A549 [27]): Dose-dependent effect
- Activity (A549 [28]): Dose-dependent effect
- Activity (A549 [29]): 2.55%
- Activity (A549 [30]): 4.1%
- Activity (A549 [31]): 51.4%
- Activity (A549 [32]): 88.05%
- Activity [3]: -24.7%

- Activity [1]: -176 mV
- Activity [2]: -881.5 mV
- Activity (Escherichia coli [4]): Active
SMILES: Cc1ccc(-n2n[n+](C)c3c2C(=O)c2ccccc2C3=O)cc1.O=S(=O)([O-])C(F)(F)F
- Activity [3]: 11.53%

- Activity [1]: -156.5 mV
- Activity [2]: -886 mV
- Activity (Escherichia coli [4]): Active
SMILES: C[n+]1nn(-c2ccc(F)cc2)c2c1C(=O)c1ccccc1C2=O.O=S(=O)([O-])C(F)(F)F
- Activity [3]: 43.38%

- Activity [1]: -182 mV
- Activity [2]: -885.5 mV
- Activity (Escherichia coli [4]): Active
SMILES: COc1ccc(-n2n[n+](C)c3c2C(=O)c2ccccc2C3=O)cc1OC.O=S(=O)([O-])C(F)(F)F
- Activity [3]: -31.51%

- Activity [1]: -168 mV
- Activity [2]: -867 mV
- Activity (Escherichia coli [4]): Active
SMILES: COc1cc(-n2n[n+](C)c3c2C(=O)c2ccccc2C3=O)cc(OC)c1OC.O=S(=O)([O-])C(F)(F)F
- Activity [3]: 23.23%

- Activity [1]: -182.5 mV
- Activity [2]: -762 mV
- Activity (Escherichia coli [4]): Active
SMILES: COc1cc(OC)cc(-n2n[n+](C)c3c2C(=O)c2ccccc2C3=O)c1.O=S(=O)([O-])C(F)(F)F
- Activity [3]: -27.06%
